The test system of this data set is CCRIS mutagenicity, Ames/micronucleus/aberration tests. The data set can be described thus: CCRIS mutagenicity studies.
Setting [1] is: Test System: AMES SALMONELLA TYPHIMURIUM, Strain/Indicator: TA98, Metabolic Activation: NONE, Method: STANDARD PLATE.
[2] abbreviates: Test System: AMES SALMONELLA TYPHIMURIUM, Strain/Indicator: TA100, Metabolic Activation: NONE, Method: STANDARD PLATE.
Setting [3] is: Test System: AMES SALMONELLA TYPHIMURIUM, Strain/Indicator: TA1537, Metabolic Activation: NONE, Method: STANDARD PLATE.
[4] abbreviates: Test System: E. COLI, Strain/Indicator: WP2, Metabolic Activation: NONE, Method: STANDARD PLATE.
The mark [5] stands for this setting: Test System: AMES SALMONELLA TYPHIMURIUM, Strain/Indicator: TA98, Metabolic Activation: NONE, Method: PREINCUBATION
Where [6] appears, read: Test System: AMES SALMONELLA TYPHIMURIUM, Strain/Indicator: TA100, Metabolic Activation: NONE, Method: PREINCUBATION

Activity calls are given as the source filed them. How the calls were made is not given here.

Regarding `CC1(C)C(C=C(Cl)Cl)C1C(=O)OC(C#N)c1cccc(Oc2ccccc2)c1` (stereo not drawn), the mutagenic call by setting is: (Test System: AMES SALMONELLA TYPHIMURIUM, Strain/Indicator: TA97, Metabolic Activation: BARLEY, HOMOGENATES, Method: STANDARD PLATE) “inactive; negative”; (Test System: AMES SALMONELLA TYPHIMURIUM, Strain/Indicator: TA97, Metabolic Activation: NONE, Method: STANDARD PLATE) “inactive; negative”; (Test System: AMES SALMONELLA TYPHIMURIUM, Strain/Indicator: TA97, Metabolic Activation: RAT, LIVER, S-9, DELOR 103, Method: STANDARD PLATE) “inactive; negative”; (Test System: AMES SALMONELLA TYPHIMURIUM, Strain/Indicator: TA98, Metabolic Activation: BARLEY, HOMOGENATES, Method: STANDARD PLATE) “inactive; negative”; under setting [1], “inactive; negative”; (Test System: AMES SALMONELLA TYPHIMURIUM, Strain/Indicator: TA98, Metabolic Activation: RAT, LIVER, S-9, AROCLOR 1254, Method: STANDARD PLATE) “inactive; negative”. Besides, the mutagenic call is, setting by setting: (Test System: AMES SALMONELLA TYPHIMURIUM, Strain/Indicator: TA98, Metabolic Activation: RAT, LIVER, S-9, DELOR 103, Method: STANDARD PLATE) “inactive; negative”; (Test System: AMES SALMONELLA TYPHIMURIUM, Strain/Indicator: TA100, Metabolic Activation: BARLEY, HOMOGENATES, Method: STANDARD PLATE) “inactive; negative”; under setting [2], “inactive; negative”; (Test System: AMES SALMONELLA TYPHIMURIUM, Strain/Indicator: TA100, Metabolic Activation: RAT, LIVER, S-9, AROCLOR 1254, Method: STANDARD PLATE) “inactive; negative”; (Test System: AMES SALMONELLA TYPHIMURIUM, Strain/Indicator: TA100, Metabolic Activation: RAT, LIVER, S-9, DELOR 103, Method: STANDARD PLATE) “inactive; negative”; (Test System: AMES SALMONELLA TYPHIMURIUM, Strain/Indicator: TA1535, Metabolic Activation: BARLEY, HOMOGENATES, Method: STANDARD PLATE) “inactive; negative”. The mutagenic call is, setting by setting: (Test System: AMES SALMONELLA TYPHIMURIUM, Strain/Indicator: TA1535, Metabolic Activation: NONE, Method: STANDARD PLATE) “inactive; negative”; (Test System: AMES SALMONELLA TYPHIMURIUM, Strain/Indicator: TA1535, Metabolic Activation: RAT, LIVER, S-9, AROCLOR 1254, Method: STANDARD PLATE) “inactive; negative”; (Test System: AMES SALMONELLA TYPHIMURIUM, Strain/Indicator: TA1535, Metabolic Activation: RAT, LIVER, S-9, DELOR 103, Method: STANDARD PLATE) “inactive; negative”; under setting [3], “inactive; negative”; (Test System: AMES SALMONELLA TYPHIMURIUM, Strain/Indicator: TA1537, Metabolic Activation: RAT, LIVER, S-9, AROCLOR 1254, Method: STANDARD PLATE) “inactive; negative”; (Test System: AMES SALMONELLA TYPHIMURIUM, Strain/Indicator: TA1538, Metabolic Activation: NONE, Method: STANDARD PLATE) “inactive; negative”. The mutagenic call by setting is: (Test System: AMES SALMONELLA TYPHIMURIUM, Strain/Indicator: TA1538, Metabolic Activation: RAT, LIVER, S-9, DELOR 103, Method: STANDARD PLATE) “inactive; negative”; (Test System: CHINESE HAMSTER V-79, Strain/Indicator: V-79/6-THIOGUANINE, Metabolic Activation: NONE, Method: STANDARD PLATE) “inactive; negative”; (Test System: CHINESE HAMSTER V-79, Strain/Indicator: V-79/6-THIOGUANINE, Metabolic Activation: RAT HEPATOCYTES, Method: STANDARD PLATE) “inactive; negative”; (Test System: CHINESE HAMSTER V-79, Strain/Indicator: V-79/OUABAIN, Metabolic Activation: NONE, Method: STANDARD PLATE) “inactive; negative”; (Test System: CHINESE HAMSTER V-79, Strain/Indicator: V-79/OUABAIN, Metabolic Activation: RAT HEPATOCYTES, Method: STANDARD PLATE) “inactive; negative”; under setting [4], “inactive; negative”. Also, the mutagenic call (Test System: E. COLI, Strain/Indicator: WP2, Metabolic Activation: RAT, LIVER, S-9, AROCLOR 1254, Method: STANDARD PLATE) was “inactive; negative”.
In the case of `CC(=O)OCc1c(O)cc2c(c1O)C(=O)c1ccccc1C2=O`, the mutagenic call by setting is: under setting [5], “active; positive”; (Test System: AMES SALMONELLA TYPHIMURIUM, Strain/Indicator: TA98, Metabolic Activation: RAT, LIVER, S-9, PCB, Method: PREINCUBATION) “active; positive”; under setting [6], “active; positive”; (Test System: AMES SALMONELLA TYPHIMURIUM, Strain/Indicator: TA100, Metabolic Activation: RAT, LIVER, S-9, PCB, Method: PREINCUBATION) “active; positive”.
`CN(Cc1cnc2nc(N)nc(N)c2n1)c1ccc(C(=O)N[C@@H](CCC(=O)O)C(=O)O)cc1`: the mutagenic call is, setting by setting: (End Point: IN VITRO MICRONUCLEUS, Test System: V79 CELLS, Metabolic Activation: NONE) “inactive; negative”; (End Point: IN VIVO CHROMOSOMAL ABERRATIONS, Test System: BONE MARROW, Species: MOUSE, Strain/Sex: SWISS/MALE, FEMALE, Route: INTRAPERITONEAL) “active; positive (structural changes)”; (End Point: IN VIVO MICRONUCLEUS, Test System: BONE MARROW, Species: MOUSE, Strain/Sex: SWISS/MALE, FEMALE, Route: INTRAPERITONEAL) “active; positive”; (End Point: In vitro micronucleus, Test System: Human lymphoblastoid TK6 cells, Metabolic Activation: None) “active; positive (p<0.001)”; under setting [5], “inactive; negative”; under setting [1], “inactive; negative”. For the same compound, the mutagenic call was “inactive; negative” (Test System: AMES SALMONELLA TYPHIMURIUM, Strain/Indicator: TA98, Metabolic Activation: S-9, Method: PREINCUBATION); “inactive; negative” (Test System: AMES SALMONELLA TYPHIMURIUM, Strain/Indicator: TA98, Metabolic Activation: S-9, Method: STANDARD PLATE); “inactive; negative” under setting [6]; “inactive; negative” under setting [2]; “inactive; negative” (Test System: AMES SALMONELLA TYPHIMURIUM, Strain/Indicator: TA100, Metabolic Activation: S-9, Method: PREINCUBATION); “inactive; negative” (Test System: AMES SALMONELLA TYPHIMURIUM, Strain/Indicator: TA100, Metabolic Activation: S-9, Method: STANDARD PLATE). Further, the mutagenic call (Test System: AMES SALMONELLA TYPHIMURIUM, Strain/Indicator: TA102, Metabolic Activation: NONE, Method: STANDARD PLATE) was “inactive; negative”; the mutagenic call under setting [3] was “inactive; negative”; the mutagenic call (Test System: CHINESE HAMSTER V-79, Strain/Indicator: V-79 (HGPRT)/6-THIOGUANINE, Metabolic Activation: NONE) is “inactive; negative”; the mutagenic call (Test System: CHINESE HAMSTER V-79, Strain/Indicator: V-79/6-THIOGUANINE, Metabolic Activation: NONE, Method: SUSPENSION/PLATE) is “inactive; negative”; the mutagenic call (Test System: CHINESE HAMSTER V-79, Strain/Indicator: V-79/6-THIOGUANINE, Metabolic Activation: RAT, LIVER, HEPATOCYTES, Method: SUSPENSION/PLATE) was “inactive; negative”; the mutagenic call (Test System: E. COLI, Strain/Indicator: WP2 (HCR), Metabolic Activation: NONE, Method: STANDARD PLATE) is “inactive; negative”. The mutagenic call by setting is: (Test System: E. COLI, Strain/Indicator: WP2 (HCR), Metabolic Activation: S-9, Method: STANDARD PLATE) “inactive; negative”; under setting [4], “active; positive”; (Test System: MOUSE LYMPHOMA, Strain/Indicator: L5178Y (TK+/TK-), Metabolic Activation: NONE, Method: MICROWELL) “active; positive”; (Test System: MOUSE LYMPHOMA, Strain/Indicator: L5178Y (TK+/TK-), Metabolic Activation: NONE, Method: SUSPENSION/PLATE) “active; positive”; (Test System: MOUSE LYMPHOMA, Strain/Indicator: L5178Y (TK+/TK-), Metabolic Activation: RAT, LIVER, S-9, AROCLOR 1254, Method: SUSPENSION/PLATE) “active; positive”; (Test System: MOUSE LYMPHOMA, Strain/Indicator: L5178Y (TK+/TK-), Metabolic Activation: S-9, Method: MICROWELL) “active; positive”.

The values above are taken from PubChem BioAssay AID1259407 (Chemical Carcinogenesis Research Information System (CCRIS), 2018).
